The target in this experiment is Neuraminidase (NA) of A/Bethesda/956/2006, NA-R292K (Influenza A virus, UniProt F1KL32, R292K). In kind it is biochemical, influenza A(H3N2) virus.

Here are results for one compound from publication PMC6943751 (The Journal of infectious diseases, 2014).

`CCC(CC)[C@H](NC(C)=O)[C@@H]1[C@H](O)[C@@H](C(=O)O)C[C@H]1N=C(N)N` [Peramivir, peramivir]: the “Fold-Difference of IC50 compared with the IC50 of WT virus” value is 16.27 ± 0.89 (71) fold. Further, the half-maximal inhibitory concentration (IC50) (read-out: IC50, nM ± SD) came to 16.3 nM.
